How the values were obtained:
Experiment in all cases: relative viability vs DMSO control (72 h) (fraction); higher = more viable cells
[1] = system: SW1353
Procedure, shortened: (§1)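 Sarcoma cell lines in 384-well plates, seeded to reach 80–90% confluence, were given compound after 24 h and kept 72 h at 37 °C, 5% CO2, with 0.1% DMSO vehicle and a 5 µM positive control. Relative viability came from ATPLite as percent growth, averaged over up to triplicate wells. On the rescaled values, 1 equals full and 0 equals none.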

[2] = system: RD-ES
Procedure, shortened: as §1

[3] = system: SW684
Procedure, shortened: as §1

[4] = system: KHOS-240S
Procedure, shortened: as §1

[5] = system: A204
Procedure, shortened: as §1

[6] = system: SW872
Procedure, shortened: as §1

[7] = system: KHOS-NP
Procedure, shortened: as §1

[8] = system: SW982
Procedure, shortened: as §1

[9] = system: G401
Procedure, shortened: as §1

[10] = system: SYO-1
Procedure, shortened: as §1

[11] = system: HT1080
Procedure, shortened: as §1

[12] = system: SK-ES-1
Procedure, shortened: as §1

CC(C)(C)c1nc(-c2cccc(NS(=O)(=O)c3c(F)cccc3F)c2F)c(-c2ccnc(N)n2)s1 [Dabrafenib]
Conditions	relative viability
[1], 0.00017 µM	1.02
[1], 0.00051 µM	1.01
[1], 0.00152 µM	0.957
[1], 0.00457 µM	0.959
[1], 0.01372 µM	0.9603
[1], 0.04115 µM	0.936
[1], 0.1235 µM	0.898
[1], 0.3704 µM	0.875
[1], 1.111 µM	0.859
[1], 3.333 µM	0.89
[1], 10 µM	0.988
[2], 0.00017 µM	0.94
[2], 0.00051 µM	0.924
[2], 0.00152 µM	0.948
[2], 0.00457 µM	0.94
[2], 0.01372 µM	0.911
[2], 0.04115 µM	0.872
[2], 0.1235 µM	0.838
[2], 0.3704 µM	0.706
[2], 1.111 µM	0.531
[2], 3.333 µM	0.508
[2], 10 µM	0.557
[3], 0.00017 µM	1.13
[3], 0.00051 µM	1.09
[3], 0.00152 µM	1.129
[3], 0.00457 µM	1.18
[3], 0.01372 µM	1.13
[3], 0.04115 µM	1.12
[3], 0.1235 µM	1.13
[3], 0.3704 µM	1.025
[3], 1.111 µM	0.953
[3], 3.333 µM	1.09
[3], 10 µM	1.16
[4], 0.00017 µM	1.07
[4], 0.00051 µM	1.06
[4], 0.00152 µM	1.04
[4], 0.00457 µM	1.03
[4], 0.01372 µM	1.01
[4], 0.04115 µM	1
[4], 0.1235 µM	1.03
[4], 0.3704 µM	1.01
[4], 1.111 µM	0.975
[4], 3.333 µM	0.964
[4], 10 µM	0.854
[5], 0.00017 µM	1
[5], 0.00051 µM	1.04
[5], 0.00152 µM	1.04
[5], 0.00457 µM	1.04
[5], 0.01372 µM	1.05
[5], 0.04115 µM	0.978
[5], 0.1235 µM	0.938
[5], 0.3704 µM	0.843
[5], 1.111 µM	0.76
[5], 3.333 µM	0.69
[5], 10 µM	0.614
[6], 0.00017 µM	1.08
[6], 0.00051 µM	1.01
[6], 0.00152 µM	0.907
[6], 0.00457 µM	0.821
[6], 0.01372 µM	0.614
[6], 0.04115 µM	0.558
[6], 0.1235 µM	0.525
[6], 0.3704 µM	0.463
[6], 1.111 µM	0.412
[6], 3.333 µM	0.398
[6], 10 µM	0.334
[7], 0.00017 µM	1.09
[7], 0.00051 µM	1.07
[7], 0.00152 µM	1.05
[7], 0.00457 µM	0.995
[7], 0.01372 µM	1.01
[7], 0.04115 µM	1.03
[7], 0.1235 µM	1.01
[7], 0.3704 µM	0.901
[7], 1.111 µM	0.743
[7], 3.333 µM	0.522
[7], 10 µM	0.303
[8], 0.00017 µM	1
[8], 0.00051 µM	0.988
[8], 0.00152 µM	0.974
[8], 0.00457 µM	0.886
[8], 0.01372 µM	0.85
[8], 0.04115 µM	0.779
[8], 0.1235 µM	0.701
[8], 0.3704 µM	0.469
[8], 1.111 µM	0.384
[8], 3.333 µM	0.369
[8], 10 µM	0.356
[9], 0.00017 µM	0.982
[9], 0.00051 µM	0.994
[9], 0.00152 µM	0.916
[9], 0.00457 µM	0.937
[9], 0.01372 µM	0.949
[9], 0.04115 µM	0.955
[9], 0.1235 µM	0.929
[9], 0.3704 µM	0.857
[9], 1.111 µM	0.768
[9], 3.333 µM	0.781
[9], 10 µM	0.814
[10], 0.00017 µM	0.985
[10], 0.00051 µM	0.9278
[10], 0.00152 µM	0.926
[10], 0.00457 µM	0.911
[10], 0.01372 µM	0.92
[10], 0.04115 µM	0.919
[10], 0.1235 µM	0.898
[10], 0.3704 µM	0.939
[10], 1.111 µM	0.857
[10], 3.333 µM	0.871
[10], 10 µM	0.816
[11], 0.00017 µM	1.05
[11], 0.00051 µM	1.09
[11], 0.00152 µM	1.01
[11], 0.00457 µM	1.07
[11], 0.01372 µM	1.05
[11], 0.04115 µM	1.11
[11], 0.1235 µM	1.13
[11], 0.3704 µM	0.944
[11], 1.111 µM	0.837
[11], 3.333 µM	0.886
[11], 10 µM	0.6761
[12], 0.00017 µM	1.01
[12], 0.00051 µM	1.04
[12], 0.00152 µM	1
[12], 0.00457 µM	1.02
[12], 0.01372 µM	0.987
[12], 0.04115 µM	0.927
[12], 0.1235 µM	0.794
[12], 0.3704 µM	0.524
[12], 1.111 µM	0.368
[12], 3.333 µM	0.41

Cc1[nH]c(/C=C2\C(=O)Nc3ccc(F)cc32)c(C)c1C(=O)NCCN1CCCC1 [Toceranib]
Conditions	relative viability
[1], 68 pM	1.07
[1], 0.000203 µM	1.02
[1], 0.0006 µM	1.02
[1], 0.0018 µM	0.987
[1], 0.0055 µM	0.994
[1], 0.0165 µM	0.973
[1], 0.0494 µM	0.964
[1], 0.1481 µM	0.928
[1], 0.444 µM	0.934
[1], 1.333 µM	0.96
[1], 4 µM	0.893
[2], 68 pM	0.976
[2], 0.000203 µM	0.948
[2], 0.0006 µM	0.964
[2], 0.0018 µM	0.943
[2], 0.0055 µM	0.9493
[2], 0.0165 µM	0.937
[2], 0.0494 µM	0.924
[2], 0.1481 µM	0.902
[2], 0.444 µM	0.821
[2], 1.333 µM	0.615
[2], 4 µM	0.176
[3], 68 pM	1.1
[3], 0.000203 µM	1.178
[3], 0.0006 µM	1.13
[3], 0.0018 µM	1.13
[3], 0.0055 µM	1.14
[3], 0.0165 µM	1.1
[3], 0.0494 µM	1.15
[3], 0.1481 µM	1.14
[3], 0.444 µM	1.12
[3], 1.333 µM	0.956
[3], 4 µM	0.755
[4], 68 pM	1.08
[4], 0.000203 µM	1.105
[4], 0.0006 µM	1.08
[4], 0.0018 µM	1.11
[4], 0.0055 µM	1.03
[4], 0.0165 µM	0.989
[4], 0.0494 µM	0.974
[4], 0.1481 µM	0.941
[4], 0.444 µM	0.865
[4], 1.333 µM	0.705
[4], 4 µM	0.491
[5], 68 pM	1.05
[5], 0.000203 µM	1.01
[5], 0.0006 µM	1.06
[5], 0.0018 µM	1.08
[5], 0.0055 µM	1.03
[5], 0.0165 µM	0.938
[5], 0.0494 µM	0.633
[5], 0.1481 µM	0.442
[5], 0.444 µM	0.394
[5], 1.333 µM	0.355
[5], 4 µM	0.327
[6], 68 pM	1.05
[6], 0.000203 µM	1.05
[6], 0.0006 µM	1.03
[6], 0.0018 µM	0.982
[6], 0.0055 µM	0.954
[6], 0.0165 µM	0.971
[6], 0.0494 µM	0.944
[6], 0.1481 µM	0.939
[6], 0.444 µM	0.886
[6], 1.333 µM	0.65
[6], 4 µM	0.521
[7], 68 pM	1.09
[7], 0.000203 µM	1.106
[7], 0.0006 µM	1.0967
[7], 0.0018 µM	1.08
[7], 0.0055 µM	1.07
[7], 0.0165 µM	1.07
[7], 0.0494 µM	1.03
[7], 0.1481 µM	1.02
[7], 0.444 µM	1.02
[7], 1.333 µM	1
[7], 4 µM	0.775
[8], 68 pM	0.951
[8], 0.000203 µM	0.984
[8], 0.0006 µM	0.962
[8], 0.0018 µM	1.01
[8], 0.0055 µM	0.985
[8], 0.0165 µM	1
[8], 0.0494 µM	0.929
[8], 0.1481 µM	0.993
[8], 0.444 µM	0.948
[8], 1.333 µM	0.571
[8], 4 µM	0.31
[9], 68 pM	0.991
[9], 0.000203 µM	0.978
[9], 0.0006 µM	0.979
[9], 0.0018 µM	0.983
[9], 0.0055 µM	0.974
[9], 0.0165 µM	0.918
[9], 0.0494 µM	0.941
[9], 0.1481 µM	0.924
[9], 0.444 µM	0.938
[9], 1.333 µM	0.912
[9], 4 µM	0.787
[10], 68 pM	0.931
[10], 0.000203 µM	0.887
[10], 0.0006 µM	0.835
[10], 0.0018 µM	0.806
[10], 0.0055 µM	0.721
[10], 0.0165 µM	0.64
[10], 0.0494 µM	0.587
[10], 0.1481 µM	0.603
[10], 0.444 µM	0.576
[10], 1.333 µM	0.482
[10], 4 µM	0.357
[11], 68 pM	1.09
[11], 0.000203 µM	1.06
[11], 0.0006 µM	1.116
[11], 0.0018 µM	1.07
[11], 0.0055 µM	1.076
[11], 0.0165 µM	1.04
[11], 0.0494 µM	1.09
[11], 0.1481 µM	1
[11], 0.444 µM	1.1
[11], 1.333 µM	1.14
[11], 4 µM	0.868
[12], 68 pM	1.01
[12], 0.000203 µM	1.02
[12], 0.0006 µM	1
[12], 0.0018 µM	0.995
[12], 0.0055 µM	0.996
[12], 0.0165 µM	0.98
[12], 0.0494 µM	0.972
[12], 0.1481 µM	0.913
[12], 0.444 µM	0.802
[12], 1.333 µM	0.43
[12], 4 µM	0.165

From the supplement of paper PMC10883282
